From US20170165237A1 (DRUGGABILITY TECHNOLOGIES IP HOLDCO LIMITED, priority 2014, published 2017)

Experiments:
[1] = cited from earlier work
human plasma proteins [2] = target: human plasma proteins (Homo sapiens, UniProt P02768); details: serum albumin; cited from earlier work
human plasma proteins [3] = details: cited from earlier work
[4] = topical, psoriasis; cited from earlier work
[5] = cited from earlier work; remark: listed apart in the source
[6] = subconjunctival, 5 subjects; cited from earlier work
angiogenesis pathways = details: topical 1%; cited from earlier work
[7] = in vivo; cited from earlier work
[8] = in vivo; cited from earlier work; remark: listed apart in the source
in vitro = details: PAMPA, pH 7
Description: The receiver compartment was phosphate buffered saline (pH 7.0) supplemented with 1% sodium dodecyl sulfate. The assay was performed at room temperature; incubation time was 1-24 hours. The concentration in the receiver compartment was determined by UV-VIS spectrophotometry (Thermo Scientific Genesys S10).

CYP3A4 = CYP3A4 (Homo sapiens, UniProt P08684); details: cited from earlier work
CYP3A4, sequence (P08684 whole entry): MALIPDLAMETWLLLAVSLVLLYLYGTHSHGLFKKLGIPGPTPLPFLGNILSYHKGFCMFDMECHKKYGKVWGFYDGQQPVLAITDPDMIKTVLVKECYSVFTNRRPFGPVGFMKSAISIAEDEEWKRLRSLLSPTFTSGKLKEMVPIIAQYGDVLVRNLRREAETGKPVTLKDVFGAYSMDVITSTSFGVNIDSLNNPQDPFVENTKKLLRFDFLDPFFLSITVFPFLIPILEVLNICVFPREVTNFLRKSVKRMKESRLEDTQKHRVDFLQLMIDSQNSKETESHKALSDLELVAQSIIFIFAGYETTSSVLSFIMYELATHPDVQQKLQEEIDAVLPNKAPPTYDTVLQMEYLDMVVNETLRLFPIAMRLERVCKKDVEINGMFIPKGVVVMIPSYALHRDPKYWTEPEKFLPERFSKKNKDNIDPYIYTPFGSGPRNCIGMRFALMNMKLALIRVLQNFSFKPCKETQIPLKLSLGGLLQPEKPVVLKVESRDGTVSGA

P-gp = P-gp (Homo sapiens, UniProt P08183); details: cited from earlier work
P-gp, sequence (P08183 whole entry): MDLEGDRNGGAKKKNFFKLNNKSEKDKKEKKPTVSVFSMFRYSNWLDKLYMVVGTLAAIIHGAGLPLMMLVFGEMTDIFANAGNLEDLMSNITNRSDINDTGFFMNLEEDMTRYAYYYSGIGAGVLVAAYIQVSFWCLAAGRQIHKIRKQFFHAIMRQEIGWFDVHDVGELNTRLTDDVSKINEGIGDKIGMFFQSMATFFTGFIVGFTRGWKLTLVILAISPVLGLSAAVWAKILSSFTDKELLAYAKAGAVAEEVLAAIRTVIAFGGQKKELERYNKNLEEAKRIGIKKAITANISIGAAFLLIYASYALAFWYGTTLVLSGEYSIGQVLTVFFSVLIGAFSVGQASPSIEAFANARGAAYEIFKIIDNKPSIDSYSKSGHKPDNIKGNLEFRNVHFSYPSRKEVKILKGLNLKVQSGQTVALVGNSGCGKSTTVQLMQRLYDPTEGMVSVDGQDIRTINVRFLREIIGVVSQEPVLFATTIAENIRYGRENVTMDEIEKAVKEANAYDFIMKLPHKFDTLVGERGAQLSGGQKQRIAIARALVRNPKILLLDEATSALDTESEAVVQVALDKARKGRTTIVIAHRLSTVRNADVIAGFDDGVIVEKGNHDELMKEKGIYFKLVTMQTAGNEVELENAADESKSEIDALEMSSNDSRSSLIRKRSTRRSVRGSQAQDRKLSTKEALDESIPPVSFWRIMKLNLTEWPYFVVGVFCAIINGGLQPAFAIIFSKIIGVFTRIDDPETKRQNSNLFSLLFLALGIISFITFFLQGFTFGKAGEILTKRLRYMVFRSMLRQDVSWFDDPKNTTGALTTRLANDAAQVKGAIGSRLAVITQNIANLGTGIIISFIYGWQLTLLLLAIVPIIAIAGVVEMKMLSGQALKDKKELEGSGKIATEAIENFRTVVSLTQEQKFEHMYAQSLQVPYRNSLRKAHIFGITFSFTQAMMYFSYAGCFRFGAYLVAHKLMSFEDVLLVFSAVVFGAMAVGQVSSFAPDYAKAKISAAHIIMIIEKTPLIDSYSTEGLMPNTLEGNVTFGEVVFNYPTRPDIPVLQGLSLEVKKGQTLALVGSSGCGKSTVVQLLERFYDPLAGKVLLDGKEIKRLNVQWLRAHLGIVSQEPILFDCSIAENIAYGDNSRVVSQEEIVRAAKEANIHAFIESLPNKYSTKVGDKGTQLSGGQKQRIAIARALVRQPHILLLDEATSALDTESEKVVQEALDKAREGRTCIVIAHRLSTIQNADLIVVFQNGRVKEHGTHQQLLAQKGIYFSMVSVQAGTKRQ

[9] = single dose [14C] Sirolimus oral solution, healthy volunteers

human plasma proteins (Homo sapiens, UniProt P02768), sequence (P02768 25-609): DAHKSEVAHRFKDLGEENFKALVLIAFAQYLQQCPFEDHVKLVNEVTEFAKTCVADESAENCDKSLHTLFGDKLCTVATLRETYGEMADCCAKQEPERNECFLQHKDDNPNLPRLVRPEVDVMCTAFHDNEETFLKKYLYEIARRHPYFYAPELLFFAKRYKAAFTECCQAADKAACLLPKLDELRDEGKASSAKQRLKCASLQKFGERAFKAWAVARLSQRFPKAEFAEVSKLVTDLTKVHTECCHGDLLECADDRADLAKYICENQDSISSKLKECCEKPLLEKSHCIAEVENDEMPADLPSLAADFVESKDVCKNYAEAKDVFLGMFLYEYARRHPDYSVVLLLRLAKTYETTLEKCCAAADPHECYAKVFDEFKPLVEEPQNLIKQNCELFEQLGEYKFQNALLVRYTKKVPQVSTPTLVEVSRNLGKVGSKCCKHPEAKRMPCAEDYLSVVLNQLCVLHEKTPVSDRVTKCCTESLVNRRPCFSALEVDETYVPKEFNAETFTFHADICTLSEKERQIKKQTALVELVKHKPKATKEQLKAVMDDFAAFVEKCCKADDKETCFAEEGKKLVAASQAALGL

CO[C@H]1C[C@@H]2CC[C@@H](C)[C@@](O)(O2)C(=O)C(=O)N2CCCC[C@H]2C(=O)O[C@H]([C@H](C)C[C@@H]2CC[C@@H](O)[C@H](OC)C2)CC(=O)[C@H](C)/C=C(\C)[C@@H](O)[C@@H](OC)C(=O)[C@H](C)C[C@H](C)/C=C/C=C/C=C/1C [Sirolimus, (3 S,6R,7E,9R,10R, 12R, 14S, 15E, 17E, 19E,21 S,23 S,26R,27R,34aS)9,10,12,13,14,21,22,23,24, 25,26,27,32,33,34, 34a-hexadecahydro-9,27-dihydroxy-3-[(1R)-2[(1 S,3R,4R)-4-hydroxy-3-methoxycyclohexyl]-1-methylethyl]-10,21-dimethoxy6,8,12,14,20,26-hexamethyl-23,27-epoxy-3H-pyrido[2,1-c][1,4]oxaazacyclohentriacontine1,5,11,28,29 (4H,6H,31H)-pentone]
increase of mean total exposure (AUC) by high-fat meal compared with fasting ([1]; healthy subjects, high-fat meal (861.8 kcal, 54.9% kcal from fat)): 23 to 35%
mean±SD terminal elimination half-life (t1/2) ([1]; multiple dosing, stable renal transplant patients): about 62±16 hours
contribution to immunosuppressive activity in human whole blood ([1]; parent vs metabolites, human whole blood): more than 90%
radioactivity excreted in urine [1, 9]: 2.2%
radioactivity recovered from the feces [1, 9]: 91%
bound mainly to serum albumin (human plasma proteins [2]): 97%
bound to human plasma proteins (human plasma proteins [3]): approximately 92%
clinical score [4]: significant reduction
plaque thickness and erythema [4]: did not show significant improvement
systemic absorption after topical application ([5]; detection >1.0 ng/mL): No detectable systemic absorption
effect on facial angiofibromas ([5]; topical): causes regression
tolerability [6]: well tolerated
angiogenesis pathways; regeneration and revascularization of photocoagulated blood vessels (angiogenesis pathways): can suppress
allograft survival [7]: prolongs
immune-mediated events in autoimmune disease models [8]: suppresses
Papp (in vitro): < 1 ×10⁻⁶ cm/s
substrate for CYP3A4 (CYP3A4): substrate
substrate for P-gp (P-gp): substrate
